Assay results as given in patent publication US6770287B1, “Biocidal cellulosic material” (The Regents of the University of California, priority 2000, dated 2004).

Legend:
[1] = tested on: E. coli; assay: AATCC Test Method 147 qualitative antibacterial test (inhibition zone); type: cell-based, Escherichia coli (ATCC 2666)
[2] = tested on: E. coli; assay: AATCC Test Method 100 quantitative antibacterial test (bacterial reduction); type: cell-based, Escherichia coli (ATCC 2666); settings: Anti-1 4%, contact time 60 min
Source text: (§1) AATCC Test Method 100 was adopted in this study. According to this test method, four pieces of staked circular fabric swatches 4.8±0.1 (about one grams) were inoculated with 1.0±0.1 milliliter of inoculum in a 250 milliliter jar. The inoculum was a nutrient broth culture containing over 1.0×10^6 clone forming units (CFU) of organisms. After the swatches were inoculated, they were neutralized by 100 milliliter of a 0.02% sodium thiosulfate solution in the jar. The contact time was the time between inoculation and neutralization. The jar was vigorously shaken and the neutralized solution was diluted in serial. The dilutions, usually 100, 101, and 102, were plated on nutrient agar and incubated for 18-24 hours at 37° C. The number of bacteria recovered from the inoculated finished fabrics was counted and compared with that from untreated fabrics. Six log reduction means the total inactivation of bacteria, and one log reduction means that finished fabrics reduced bacteria counts from 106 CFU to 105 CFU.
(§2) Finished fabrics prepared from solutions containing 1%-6% of monomethylol-5,5-dimethylhydantoin following the protocol set forth in Example 1 with pickup rates below 1% have been tested.
(§3) Fabrics finished in accordance with the protocol set forth in Example II with Anti-2, i.e., 1,3-dimethylol-5,5-dimethylhydantoin, were also tested with AATCC test method 100, which was briefly described in Example IV. In the tests, a diluted CLOROX® solution containing 0.01 % active chlorine was used to chlorinate the finished fabrics.

[3] = tested on: S. aureus; assay: AATCC Test Method 147 qualitative antibacterial test (inhibition zone); type: cell-based, Staphylococcu aureus (ATCC 5368)
Source text: (§4) Fabric samples of #405 (pure cotton, Testfabrics, Inc., Middlesex, N.J.) and # 7402 (cotton/polyester 35/65, Testfabrics, Inc., Middlesex, N.J.) were finished in a manner similar to that set forth in Example I. The concentration of the finishing agent used was from about 5 to 15% in the finishing of the cotton fabrics and from about 5 to 20% in the finishing of the cotton/polyester (35/65) blend fabric because of the lower concentration of cellulose in the blend. The final biocidal property was imparted onto the finished fabrics by washing them with a diluted CLOROX® solution containing 0.25% chlorine after each washing circle. Qualitative antibacterial tests were conducted according to AATCC Test Method 147.
(§5) In the AATCC Test Method 147, two pieces of chlorinated fabrics with the size of 25 mm×50 mm were placed on a nutrient agar plate which had been inoculated by five streaks of a diluted bacteria solution using a 4 mm inoculating loop. The diluted bacteria solution was prepared by transferring 1.0 milliliter of 24 hour broth culture into 9.0 milliliter of sterile distilled water. The agar plate was incubated at 37° C. for 18-24 hours. The minimum width of inhibition zone along a streak on either side of the test specimen are measured. Table I sets forth the qualitative biocidal evaluations of the finished fabrics with different concentration of the agent Anti-1.

[4] = tested on: S. aureus; assay: AATCC Test Method 100 quantitative antibacterial test (bacterial reduction); type: cell-based, Staphylococcu aureus (ATCC 5368); settings: for Bacterial Reduction Rates After fifteen washings S. aur. / Bacterial Reduction Rates After five Washings S. aur. / Bacterial Reduction Rates After ten Washings S. aur. / Bacterial Reduction Rates After twenty washings S. aur.: contact time 60 min
Source text: as §1, §2, §3

[5] = tested on: E. coli; assay: AATCC Test Method 147 qualitative antibacterial test (inhibition zone); type: cell-based, Escherichia coli (ATCC 2666); remark: listed apart in the source
Source text: as §4, §5

[6] = tested on: S. aureus; assay: as above; type: cell-based, Staphylococcu aureus (ATCC 5368); remark: listed apart in the source
[7] = Cotton cloth #400, add-on 1.43%
[8] = Dacron/Cotton 65/35 #7402, add-on 1.19%
[9] = Terry cloth 100% Cotton, add-on 1.40%
[10] = #405 cotton, Anti-1 5%, add-on 1.2%
[11] = #405 cotton, Anti-1 10%, add-on 2.3%
[12] = #405 cotton, Anti-1 15%, add-on 3.1%
[13] = #7402 cotton/polyester 35/65, Anti-1 5%, add-on 0.8%
[14] = #7402 cotton/polyester 35/65, Anti-1 10%, add-on 1.4%
[15] = #7402 cotton/polyester 35/65, Anti-1 15%, add-on 1.6%
[16] = #7402 cotton/polyester 35/65, Anti-1 20%, add-on 2.0%
[17] = Anti-1 1%, #7402, take up 0.14%
[18] = Anti-1 2%, #7402, take up 0.07%
[19] = Anti-1 4%, #7402, take up 0.45%
[20] = Anti-1 6%, #7402, take up 0.70%

## CC1(C)NC(=O)N(CO)C1=O [Anti-1, monomethylol-5,5-dimethylhydantoin]
[1]; [7]
  Biocidal results against E. coli after being activated: >2.0 mm
[1]; [8]
  Biocidal results against E. coli after being activated: >10 mm
[1]; Rayon, add-on 1.21%
  Biocidal results against E. coli after being activated: >1.0 mm
[1]; [9]
  Biocidal results against E. coli after being activated: >10 mm
[2]; Cl 0.01%, #400
  Bacterial Reduction Rates After fifteen washings E. coli: 6 log
  Bacterial Reduction Rates After five Washings E. coli: 6 log
  Bacterial Reduction Rates After ten Washings E. coli: 6 log
  Bacterial Reduction Rates After twenty washings E. coli: 6 log
[2]; Cl 0.01%, #7409
  Bacterial Reduction Rates After fifteen washings E. coli: 6 log
  Bacterial Reduction Rates After five Washings E. coli: 6 log
  Bacterial Reduction Rates After ten Washings E. coli: 6 log
  Bacterial Reduction Rates After twenty washings E. coli: 6 log
[2]; Cl 0.1%, #400
  Bacterial Reduction Rates After fifteen washings E. coli: 6 log
  Bacterial Reduction Rates After five Washings E. coli: 6 log
  Bacterial Reduction Rates After ten Washings E. coli: 6 log
  Bacterial Reduction Rates After twenty washings E. coli: 1 log
[2]; Cl 0.1%, #7409
  Bacterial Reduction Rates After fifteen washings E. coli: 6 log
  Bacterial Reduction Rates After five Washings E. coli: 6 log
  Bacterial Reduction Rates After ten Washings E. coli: 6 log
  Bacterial Reduction Rates After twenty washings E. coli: 6 log
[2]; Cl 0.25%, #400
  Bacterial Reduction Rates After fifteen washings E. coli: 1 log
  Bacterial Reduction Rates After five Washings E. coli: 6 log
  Bacterial Reduction Rates After ten Washings E. coli: 2 log
  Bacterial Reduction Rates After twenty washings E. coli: 1 log
[2]; Cl 0.25%, #7409
  Bacterial Reduction Rates After fifteen washings E. coli: 6 log
  Bacterial Reduction Rates After five Washings E. coli: 6 log
  Bacterial Reduction Rates After ten Washings E. coli: 6 log
  Bacterial Reduction Rates After twenty washings E. coli: 1 log
[3]; [10]
  Biocidal Results After 20 Times Washing S. aureus: >1 mm
  Biocidal Results After 50 Times Washing S. aureus: ˜1 mm
[3]; [11]
  Biocidal Results After 20 Times Washing S. aureus: >3 mm
  Biocidal Results After 50 Times Washing S. aureus: >1 mm
[3]; [12]
  Biocidal Results After 20 Times Washing S. aureus: kill all
  Biocidal Results After 50 Times Washing S. aureus: >4 mm
[3]; [13]
  Biocidal Results After 20 Times Washing S. aureus: >1 mm
  Biocidal Results After 50 Times Washing S. aureus: ˜1 mm
[3]; [14]
  Biocidal Results After 20 Times Washing S. aureus: >1 mm
  Biocidal Results After 50 Times Washing S. aureus: ˜1 mm
[3]; [15]
  Biocidal Results After 20 Times Washing S. aureus: kill all
  Biocidal Results After 50 Times Washing S. aureus: >1 mm
[3]; [16]
  Biocidal Results After 20 Times Washing S. aureus: >4 mm
  Biocidal Results After 50 Times Washing S. aureus: >1 mm
[3]; [7]
  Biocidal results against S. aureus after being activated: >1.0 mm
[4]; Anti-1 1%, #400, take up 0.65%
  Bacterial reduction rates on contact time 0 min S. aureus: No
  Bacterial reduction rates on contact time 30 min S. aureus: 1 log
  Bacterial reduction rates on contact time 60 min S. aureus: No
[4]; [17]
  Bacterial reduction rates on contact time 0 min S. aureus: No
  Bacterial reduction rates on contact time 30 min S. aureus: No
  Bacterial reduction rates on contact time 60 min S. aureus: No
[4]; Anti-1 2%, #400, take up 0.03%
  Bacterial reduction rates on contact time 0 min S. aureus: 1 log
  Bacterial reduction rates on contact time 30 min S. aureus: 6 log
  Bacterial reduction rates on contact time 60 min S. aureus: 6 log
[4]; [18]
  Bacterial reduction rates on contact time 0 min S. aureus: No
  Bacterial reduction rates on contact time 30 min S. aureus: 1 log
  Bacterial reduction rates on contact time 60 min S. aureus: 6 log
[4]; Anti-1 4%, #400, take up 0.47%
  Bacterial reduction rates on contact time 0 min S. aureus: 6 log
  Bacterial reduction rates on contact time 30 min S. aureus: 6 log
  Bacterial reduction rates on contact time 60 min S. aureus: 6 log
[4]; [19]
  Bacterial reduction rates on contact time 0 min S. aureus: 6 log
  Bacterial reduction rates on contact time 30 min S. aureus: 6 log
  Bacterial reduction rates on contact time 60 min S. aureus: 6 log
[4]; Anti-1 6%, #400, take up 0.70%
  Bacterial reduction rates on contact time 0 min S. aureus: 6 log
  Bacterial reduction rates on contact time 30 min S. aureus: 6 log
  Bacterial reduction rates on contact time 60 min S. aureus: 6 log
[4]; [20]
  Bacterial reduction rates on contact time 0 min S. aureus: 6 log
  Bacterial reduction rates on contact time 30 min S. aureus: 6 log
  Bacterial reduction rates on contact time 60 min S. aureus: 6 log
[4]; Cl 0.01%, #400, Anti-1 4%
  Bacterial Reduction Rates After fifteen washings S. aur.: 6 log
  Bacterial Reduction Rates After five Washings S. aur.: 6 log
  Bacterial Reduction Rates After ten Washings S. aur.: 6 log
  Bacterial Reduction Rates After twenty washings S. aur.: 6 log
[4]; Cl 0.01%, #7409, Anti-1 4%
  Bacterial Reduction Rates After fifteen washings S. aur.: 6 log
  Bacterial Reduction Rates After five Washings S. aur.: 6 log
  Bacterial Reduction Rates After ten Washings S. aur.: 6 log
  Bacterial Reduction Rates After twenty washings S. aur.: 6 log
[4]; Cl 0.1%, #400, Anti-1 4%
  Bacterial Reduction Rates After fifteen washings S. aur.: 6 log
  Bacterial Reduction Rates After five Washings S. aur.: 6 log
  Bacterial Reduction Rates After ten Washings S. aur.: 6 log
  Bacterial Reduction Rates After twenty washings S. aur.: 0 log
[4]; Cl 0.1%, #7409, Anti-1 4%
  Bacterial Reduction Rates After fifteen washings S. aur.: 6 log
  Bacterial Reduction Rates After five Washings S. aur.: 6 log
  Bacterial Reduction Rates After ten Washings S. aur.: 6 log
  Bacterial Reduction Rates After twenty washings S. aur.: 6 log
[4]; Cl 0.25%, #400, Anti-1 4%
  Bacterial Reduction Rates After fifteen washings S. aur.: 0 log
  Bacterial Reduction Rates After five Washings S. aur.: 6 log
  Bacterial Reduction Rates After ten Washings S. aur.: 0 log
  Bacterial Reduction Rates After twenty washings S. aur.: 0 log
[4]; Cl 0.25%, #7409, Anti-1 4%
  Bacterial Reduction Rates After fifteen washings S. aur.: 6 log
  Bacterial Reduction Rates After five Washings S. aur.: 6 log
  Bacterial Reduction Rates After ten Washings S. aur.: 6 log
  Bacterial Reduction Rates After twenty washings S. aur.: 1 log
[5]; [10]
  Biocidal Results After 20 Times Washing E. coli: >3 mm
  Biocidal Results After 50 Times Washing E. coli: >1 mm
[5]; [11]
  Biocidal Results After 20 Times Washing E. coli: >8 mm
  Biocidal Results After 50 Times Washing E. coli: >3 mm
[5]; [12]
  Biocidal Results After 20 Times Washing E. coli: kill all
  Biocidal Results After 50 Times Washing E. coli: >4 mm
[5]; [13]
  Biocidal Results After 20 Times Washing E. coli: >3 mm
  Biocidal Results After 50 Times Washing E. coli: >1 mm
[5]; [14]
  Biocidal Results After 20 Times Washing E. coli: >3 mm
  Biocidal Results After 50 Times Washing E. coli: >2 mm
[5]; [15]
  Biocidal Results After 20 Times Washing E. coli: kill all
  Biocidal Results After 50 Times Washing E. coli: >2 mm
[5]; [16]
  Biocidal Results After 20 Times Washing E. coli: kill all
  Biocidal Results After 50 Times Washing E. coli: >3 mm
[6]; [8]
  Biocidal results against S. aureus after being activated: >4.0 mm
[6]; Rayon, add-on 1.21%
  Biocidal results against S. aureus after being activated: >1.0 mm
[6]; [9]
  Biocidal results against S. aureus after being activated: kill all
